For one series, the target named is purified PARP protein (Homo sapiens, UniProt P09874). Nature of the series: PARP enzyme inhibition assay. Type of series: biochemical. The conditions noted are these: 20 nM purified PARP (5 nM for tight-binding inhibitors), 500 μM NAD+, 25° C., several values in one cell = repeat determinations.
Where [1] appears, read: read-out: Inhibition Constant Ki.

Molecules are shown by their SMILES. Several values for one entry are separate records, joined by “and”; a condition that tells them apart may be missing. Identical values can stand only once. Like-named read-outs stand apart in the source and are kept apart here. Some results are limits rather than exact numbers.

We go through 33 compounds from patent publication US6548494B1, “Tricyclic inhibitors of poly(ADP-ribose) polymerases” (Agouron Pharmaceuticals, Inc., priority 1999, dated 2003).

One may read the Ki as the equilibrium dissociation constant of an inhibitor or competing ligand from its target. Usually melting point stands for the temperature of the solid-liquid transition.

Chain of purified PARP protein (P09874 whole entry): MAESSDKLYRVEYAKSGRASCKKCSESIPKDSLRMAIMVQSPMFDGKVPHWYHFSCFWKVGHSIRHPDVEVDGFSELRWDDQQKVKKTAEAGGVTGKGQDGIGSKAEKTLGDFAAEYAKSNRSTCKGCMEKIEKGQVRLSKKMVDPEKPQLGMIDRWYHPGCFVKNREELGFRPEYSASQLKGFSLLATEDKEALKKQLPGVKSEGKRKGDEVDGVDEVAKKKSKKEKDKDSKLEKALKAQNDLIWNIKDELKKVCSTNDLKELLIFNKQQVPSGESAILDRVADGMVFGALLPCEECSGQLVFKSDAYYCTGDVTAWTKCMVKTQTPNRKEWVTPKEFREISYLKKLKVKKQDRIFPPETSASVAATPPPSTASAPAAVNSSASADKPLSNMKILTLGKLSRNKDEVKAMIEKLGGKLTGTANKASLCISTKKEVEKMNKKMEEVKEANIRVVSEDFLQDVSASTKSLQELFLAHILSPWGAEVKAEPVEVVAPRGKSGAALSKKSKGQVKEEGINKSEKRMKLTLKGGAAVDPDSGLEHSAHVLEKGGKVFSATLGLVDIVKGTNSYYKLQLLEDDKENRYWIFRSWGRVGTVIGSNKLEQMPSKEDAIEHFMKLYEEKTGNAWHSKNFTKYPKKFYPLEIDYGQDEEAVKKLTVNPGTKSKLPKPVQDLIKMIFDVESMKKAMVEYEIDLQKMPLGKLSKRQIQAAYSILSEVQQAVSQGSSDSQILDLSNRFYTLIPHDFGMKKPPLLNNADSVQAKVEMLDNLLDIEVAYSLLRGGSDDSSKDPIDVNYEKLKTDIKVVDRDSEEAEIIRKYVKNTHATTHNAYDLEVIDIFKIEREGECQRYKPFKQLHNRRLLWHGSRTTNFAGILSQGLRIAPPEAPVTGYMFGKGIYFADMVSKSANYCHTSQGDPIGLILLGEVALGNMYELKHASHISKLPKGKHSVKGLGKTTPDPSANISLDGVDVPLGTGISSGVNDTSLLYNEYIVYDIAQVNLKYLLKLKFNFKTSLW

As to `N#Cc1cccc(-c2nc3cccc4c3n2CCNC4=O)c1` [Example 73, 3-(6-Oxo-6,7,8,9-tetrahydro-2,7,9a-triaza-benzo[cd]azulen-1-yl)-benzonitrile], the melting point was 283 to 284 °C (dec.). Moreover, the Ki at purified PARP protein (setting [1]) was determined as 10 nM.

As for `CCOC(=O)c1nc2cccc3c2n1CCNC3=O` [Example 74, 6-Oxo-6,7,8,9-tetrahydro-2,7,9a-triaza-benzo[cd]azulen-1-carboxylic Acid Ethyl Ester], the melting point was 237 to 239 °C (dec.). For the same compound, the Ki at purified PARP protein (setting [1]) was 33 nM.

Take `O=C1NCCn2c(-c3ccc(Oc4ccccc4)cc3)nc3cccc1c32` [Example 78, 1-(4-Phenoxyphenyl)-8,9-dihydro-7H-2,7,9a-triaza-benzo[cd]azulen-6-one]: the melting point was in the range of 259 to 264 °C. For the same compound, at purified PARP protein (setting [1]), the Ki stood at 5.2 nM.

`CCOC(OCC)c1ccc(-c2nc3cc(F)cc4c3n2CCNC4=O)cc1` [Example 79, 1-(4-Diethoxymethyl-phenyl)-4-fluoro-8,9-dihydro-7H-2,7,9a-triaza-benzo[cd]azulen-6-one] showed a melting point of 219 to 221 °C. Besides, the Ki at purified PARP protein (setting [1]) turned out to be 11 nM.

For the compound `O=C1NCCn2c(-c3ncc[nH]3)nc3cccc1c32` [Example 80, 1-(1H-Imidazol-2-yl)-8,9-dihydro-7H-2.7,9a-triaza-benzo[cd]azulen-6-one], the melting point was 227 to 228 °C (dec.). For the same compound, on purified PARP protein (setting [1]), the Ki was 9 nM.

Consider `O=C1NCCn2c(-c3ccc(CN4CCCC4)cc3)cc3cccc1c32` [Example 84, 6-(4-Pyrrolidin-1-ylmethyl-phenyl)-3,4-dihydro-2H-[1,4]diazepino[6,7,1-hi]indol-1-one], for which the melting point lay within 146 to 148 °C. For the same compound, the Ki on purified PARP protein (setting [1]) was 6.5 nM and 7.1 nM.

For `O=Cc1cccc(-c2cc3cccc4c3n2CCNC4=O)c1` [Example 85, 3-(1-Oxo-1,2,3,4-tetrahydro-[1,4]diazepino[6,7,1-hi]indol-6-yl)-benzaldehyde], the melting point lay within 192 to 194 °C. Also, the Ki on purified PARP protein (setting [1]) is 12 nM and 13 nM.

In the case of `CNCc1cccc(-c2cc3cccc4c3n2CCNC4=O)c1` [Example 87, 6-(3-Methylaminomethyl-phenyl)-3,4-dihydro-2H-[1,4]diazepino[6,7,1-hi]indol-1-one], the melting point was 128 to 130 °C. Further, the Ki on purified PARP protein (setting [1]) was 6.7 nM and 7 nM.

Turning to `O=C1NCCn2c(-c3cccc(CN4CCCC4)c3)cc3cccc1c32` [Example 88, 6-(3-Pyrrolidin-1-ylmethyl-phenyl)-3,4-dihydro-2H-[1,4]diazepino[6,7,1-hi]indol-1-one], the melting point was 158 to 160 °C. Besides, the Ki on purified PARP protein (setting [1]) is 12 nM and 13 nM.

Compound `N#Cc1c(-c2ccc(F)cc2)n2c3c(cccc13)C(=O)NCC2` [Example 91, 6-(4-Fluoro-phenyl)-1-oxo-1,2,3,4-tetrahydro-[1,4]diazepino[6,7,1-hi]indole-7-carbonitrile] registered a melting point of 248 to 250 °C. Moreover, the Ki on purified PARP protein (setting [1]) was found to be 54 nM.

For the compound `NC(=O)c1c(-c2ccc(F)cc2)n2c3c(cccc13)C(=O)NCC2` [Example 92, 6-(4-Fluoro-phenyl)-1-oxo-1,2,3,4-tetrahydro-[1,4]diazepino[6,7,1-hi]indole-7-carboxylic Acid Amide], the melting point lay within 287 to 289 °C. On purified PARP protein (setting [1]), the Ki came to 200 nM.

For `CC(=O)c1c(-c2ccc(F)cc2)n2c3c(cccc13)C(=O)NCC2` [Example 93, 7-Acetyl-6-(4-fluoro-phenyl)-3,4-dihydro-2H-[1,4]diazepino[6,7,1-hi]indol-1-one], the melting point lay in the range of 275 to 276 °C. At purified PARP protein (Inhibition Constant Ki (nM)), the Ki came to 306 nM.

Take `O=C1NCCn2c(-c3nccs3)nc3cccc1c32` [Example 94, 1-(Thiazol-2-yl)-8,9-dihydro-7H-2,7,9a-triaza-benzo[cd]azulen-6-one]: the melting point lay within 271 to 276 °C. Further, the Ki on purified PARP protein (setting [1]) came out at 4.3 nM.

With `O=C1NCCn2c(-c3ccc[nH]3)nc3cccc1c32` [Example 95, 1-(1H-Pyrrol-2-yl)-8,9-dihydro-7H-2,7,9a-triaza-benzo[cd]azulen-6-one], the melting point is 327 to 332 °C (dec.). Also, the Ki on purified PARP protein (setting [1]) was 6.2 nM.

In turn, `O=C1NCCn2c(-c3ccc(CO)cc3)nc3cc(F)cc1c32` [Example 97, 4-Fluoro-1-(hydroxymethyl-phenyl)-8,9-dihydro-7H-2,7,9a-triaza-benzo[cd]azulen-6-one] returned a melting point of 273 to 275 °C. Further, the Ki on purified PARP protein (setting [1]) came out at 1.6 nM.

With `CCOCCNCc1ccc(-c2nc3cccc4c3n2CCNC4=O)cc1` [Example 100, 1-{4-[(2-Ethoxyethylamino)-methyl]-phenyl}-8,9-dihydro-7H-2,7,9a-triaza-benzo[cd]azulen-6-one], the melting point is 138 to 140 °C. Besides, on purified PARP protein (setting [1]), the Ki came out at 2.7 nM.

Turning to `N#CCNCc1ccc(-c2nc3cccc4c3n2CCNC4=O)cc1` [Example 102, [4-(6-Oxo-6,7,8,9-tetrahydro-2,7,9a-triaza-benzo[cd]azulen-1-yl)-benzylamino]-acetonitrile], the melting point is 198 to 202 °C (dec.). For the same compound, the Ki at purified PARP protein (setting [1]) amounted to 5.6 nM.

`O=C1NCCn2c(-c3ccc(CNCC(F)(F)F)cc3)nc3cccc1c32` [Example 103, 1-4-[(2,2,2-Trifluoro-ethylamino)-methyl]-phenyl-8,9-dihydro-7H-2,7,9a-triaza-benzo[cd]azulen-6-one] displayed a melting point of 221 to 223 °C. At purified PARP protein (setting [1]), the inhibition constant (Ki) was determined as 6.2 nM.

Turning to `C#CCNCc1ccc(-c2nc3cccc4c3n2CCNC4=O)cc1` [Example 104, 1-(4-Prop-2-ynylaminomethyl-phenyl)-8,9-dihydro-7H-2,7,9a-triaza-benzo[cd]azulen-6-one], the melting point is 126 °C (dec.). For the same compound, at purified PARP protein (setting [1]), the Ki turned out to be 4.5 nM.

With `O=C1NCCn2c(-c3ccc(CN4CCSCC4)cc3)nc3cccc1c32` [Example 105, 1-(4-Thiomorpholin-4-ylmethyl-phenyl)-8,9-dihydro-7H-2,7,9a-triaza-benzo[cd]azulen-6-one], the melting point is 266 °C (dec.). For the same compound, the Ki at purified PARP protein (setting [1]) is 6.2 nM.

In turn, `Cc1ccc(-c2nc(-c3nc4cccc5c4n3CCNC5=O)cs2)cc1` [Example 106, 1-(2-p-Tolyl-thiazol-4-yl)-8,9-dihydro-7H-2,7,9a-triaza-benzo[cd]azulen-6-one] yielded a melting point of 308 to 313 °C. Also, the Ki on purified PARP protein (setting [1]) is 8 nM.

Consider `Cc1ccc(-c2onc3ccc(-c4nc5cccc6c5n4CCNC6=O)cc23)cc1` [Example 107, 1-(3-p-Tolyl-benzo[c]isoxazol-5-yl)-8,9-dihydro-7H-2,7,9a-triaza-benzo[cd]azulen-6-one], for which the melting point is 297 to 301 °C (dec.). Moreover, the Ki on purified PARP protein (setting [1]) amounted to 25 nM.

Take `O=C1NCCn2c(-c3ccc(Sc4ccc(Cl)cc4)nc3)nc3cccc1c32` [Example 108, 1-[6-(4-Chloro-phenylsulfanyl)-pyridin-3-yl]-8,9-dihydro-7H-2,7,9a-triaza-benzo[cd]azulen-6-one]: the melting point is 280 to 284 °C (dec.). For the same compound, at purified PARP protein (setting [1]), the Ki is 6 nM.

On to `N#Cc1ccc(Oc2ccc(-c3nc4cccc5c4n3CCNC5=O)cn2)cc1` [Example 109, 4-[5-(6-Oxo-6,7,8,9-tetrahydro-2,7,9a-triaza-benzo[cd]azulen-1-yl)-pyridin-2-yloxy]-benzonitrile], for which the melting point is 281 to 288 °C (dec.). In addition, the Ki at purified PARP protein (setting [1]) is 5.5 nM.

For `O=C1NCCn2c(C(=O)NCc3ccccc3)nc3cccc1c32` [Example 110, 6-Oxo-6,7,8,9-tetrahydro-2,7,9a-triaza-benzo[cd]azulen-1-carboxylic Acid Benzylamide], the melting point was in the range of 247 to 250 °C. Moreover, the inhibitory constant (Ki) at purified PARP protein (setting [1]) amounted to 18 nM.

As for `N#CCCNCc1ccc(-c2nc3cccc4c3n2CCNC4=O)cc1` [Example 111, 3-[4-(6-Oxo-6,7,8,9-tetrahydro-2,7,9a-triaza-benzo[cd]azulen-1-yl)-benzylamino]-propionitrile], the melting point is 208 to 214 °C. Moreover, at purified PARP protein (setting [1]), the Ki was found to be 5.1 nM.

Take `O=C1NCCn2c(C(F)(F)F)nc3cccc1c32` [Example 112, 1-Trifluoromethyl-8,9-dihydro-7H-2,7,9a-triaza-benzo[cd]azulen-6-one]: the melting point was 277 to 281 °C (dec.). For the same compound, at purified PARP protein (setting [1]), the inhibition constant (Ki) was determined as 18 nM.

As to `O=C1NCCn2c(C(=O)N3CCOCC3)nc3cccc1c32` [Example 113, 1-(Mompholine-4-carbonyl)-8,9-dihydro-7H-2,7,9a-triaza-benzo[cd]azulen-6-one], the melting point was 271 to 274 °C (dec.). Further, the Ki on purified PARP protein (setting [1]) stood at 24 nM.

Turning to `O=C1NCCn2c(-c3ccc(=O)n(Cc4ccccc4)c3)nc3cccc1c32` [Example 114, 1-(1-Benzyl-6-oxo-1,6-dihydro-pyridin-3-yl)-8,9-dihydro-7H-2,7,9a-triaza-benzo[cd]azulen-6-one], the melting point is 265 to 269 °C (dec.). Besides, the Ki on purified PARP protein (setting [1]) came out at 9.9 nM.

As for `CN1CCN(C(=O)c2nc3cccc4c3n2CCNC4=O)CC1` [Example 115, 1-(4-Methyl-piperazine-1-carbonyl)-8,9-dihydro-7H-2,7,9a-triaza-benzo[cd]azulen-6-one], the melting point was 311 to 316 °C (dec.). The Ki at purified PARP protein (setting [1]) was 116 nM.

`NC(=O)c1ccc(Oc2ccc(-c3nc4cccc5c4n3CCNC5=O)cn2)cc1` [Example 116, 4-[5-(6-Oxo-6,7,8,9-tetrahydro-2,7,9a-triaza-benzo[cd]azulen-1-yl)-pyridin-2-yloxy]-benzamide]: the melting point is 244 to 248 °C (dec.). Further, the Ki at purified PARP protein (setting [1]) is 5.2 nM.

`O=C1NCCn2c(C34CC5CC(CC(C5)C3)C4)nc3cccc1c32` [Example 117, 1-Tricyclo[3.3.1.1]dec-1-yl-8,9-dihydro-7H-2,7,9a-triaza-benzo[cd]azulene-6-one]: the melting point was 304 to 306 °C. In addition, at purified PARP protein (setting [1]), the Ki turned out to be 9.5 nM.

On to `O=C1NCCn2c(-c3ccc(Cl)nc3)nc3cccc1c32` [Example 118, 1-(6-Chloro-pyridin-3-yl)-8,9-dihydro-7H-2,7,9a-triaza-benzo[cd]azulen-6-one], for which the melting point is > 280 °C (dec.). In addition, the Ki on purified PARP protein (setting [1]) was 4.4 nM.
